# Source: US9777010B2, “Substituted 4-phenylpiperidines, their preparation and use” (THE TRUSTEES OF COLUMBIA UNIVERSITY IN THE CITY OF NEW YORK, priority 2014, dated 2017)
# Legend:
# RBP4-TTR interaction = RBP4-TTR interaction (Homo sapiens (Human), UniProt P02753); test: TR-FRET (HTRF) assay for retinol-induced RBP4-TTR interaction; type: biochemical; settings: in the presence of 1 μM retinol; read-out: HTRF assay for antagonists of RBP4-TTR interaction: IC50
# Protocol: Binding of a desired RBP4 antagonist displaces retinol and induces hindrance for RBP4-TTR interaction resulting in the decreased FRET signal (FIG. 7). Bacterially expressed MBP-RBP4 and untagged TTR were used in this assay. […] Following cell lysis, recombinant RBP4 was purified from the soluble fraction using the ACTA FPLC system (GE Healthcare) equipped with the 5-ml the MBP Trap HP column. Human untagged TTR was purchased from Calbiochem. […] HTRF assay was performed in white low volume 384 well plates (Greiner-Bio) in a final assay volume of 16 μl per well. The reaction buffer contained 10 mM Tris-HCl pH 7.5, 1 mM DTT, 0.05% NP-40, 0.05% Prionex, 6% glycerol, and 400 mM KF. […] Titration of test compounds in this assay was conducted in the presence of 1 μM retinol. All reactions were assembled in the dark under dim red light and incubated overnight at +4° C. wrapped in aluminum foil. TR-FRET signal was measured in the SpectraMax M5e Multimode Plate Reader (Molecular Device). […] The TR-FRET signal was expressed as the ratio of fluorescence intensity: Flu665/Flu620×10,000.
# serum RBP4 and retinol = settings: in vivo; cited from earlier work
Structure (SMILES),IC50 (RBP4-TTR interaction) [nM],serum RBP4 and retinol (serum RBP4 and retinol)
"COCCN1CCc2c(C(=O)N3CCC(c4cccc(F)c4C(F)(F)F)CC3)n[nH]c2C1 [Compound 77, (4-(3-Fluoro-2-(trifluoromethyl)phenyl)piperidin-1-yl)(6-(2-methoxyethyl)-4,5,6,7-tetrahydro-3aH-pyrazolo[3,4-c]pyridin-3-yl)methanone]",1.62,
"CC1=C(/C=C/C(C)=C/C=C/C(C)=C/C(=O)Nc2ccc(O)cc2)C(C)(C)CCC1 [fenretinide, N-(4-hydroxy-phenyl)retinamide]",,reduce serum RBP4 and retinol
